# Read-outs that look alike come from different tables or passages of the source.
# Experiments:
# HaCaT cells = assay: MTT assay (toxicity); format: cell-based, human
# Procedure: Confluent cells were pretreated with inhibitors in serum free medium for 1 hour, and then treated with stimulating agent for 1 hour. Conversion of substrate [3-(4, 5-dimethylthiazol-2-yl)-2, 5-diphenyl tetrazolium bromide] was measured as optical density at 580 nm after 4 hours according to Mosmann [Mosmann T, J. Immunol. Methods 65, 55-63, 1983]. For each concentration of inhibitor nine parallels were measured.
# [1] = molecular target: recombinant human IV PLA2 (Homo sapiens, UniProt P47712); assay: biochemical; conditions: for inhibition at 5 µM: read-out: inhibition of IV PLA2 enzyme activity
# [2] = test system: PGE2 production in HaCaT cells; assay: A23187-induced PGE2 release in LPS-stimulated HaCaT cells (PGE2 EIA); format: cell-based; conditions: Homo sapiens, 0.5 h, read-out: IC50 for inhibiting A23187-induced PGE2 release
# [3] = read-out: IC50 for IV PLA2 inhibition
# Chain of recombinant human IV PLA2 (P47712 whole entry): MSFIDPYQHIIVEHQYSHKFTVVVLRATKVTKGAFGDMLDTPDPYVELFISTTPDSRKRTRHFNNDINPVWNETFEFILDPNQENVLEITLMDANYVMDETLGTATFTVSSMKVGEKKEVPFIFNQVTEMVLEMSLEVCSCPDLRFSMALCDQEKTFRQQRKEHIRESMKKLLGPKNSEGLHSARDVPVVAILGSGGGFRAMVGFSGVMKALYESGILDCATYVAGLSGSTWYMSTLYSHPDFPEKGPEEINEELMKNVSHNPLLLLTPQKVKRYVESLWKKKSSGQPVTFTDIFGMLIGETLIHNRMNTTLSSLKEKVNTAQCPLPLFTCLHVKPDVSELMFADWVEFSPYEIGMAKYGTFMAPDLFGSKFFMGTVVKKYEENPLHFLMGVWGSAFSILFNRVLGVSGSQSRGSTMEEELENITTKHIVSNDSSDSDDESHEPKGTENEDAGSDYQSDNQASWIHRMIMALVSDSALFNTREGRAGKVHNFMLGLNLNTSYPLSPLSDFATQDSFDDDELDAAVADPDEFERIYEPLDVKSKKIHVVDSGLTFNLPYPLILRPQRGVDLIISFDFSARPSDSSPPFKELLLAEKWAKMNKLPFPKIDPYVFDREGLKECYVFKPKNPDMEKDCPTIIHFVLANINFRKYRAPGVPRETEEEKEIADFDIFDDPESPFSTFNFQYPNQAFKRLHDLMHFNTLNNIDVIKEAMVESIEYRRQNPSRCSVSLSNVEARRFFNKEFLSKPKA
Structure (SMILES),inhibition at 5 µM [1] [%],"IC50 [1, 3] [µM]",also measured
CNc1ccc2oc(C[C@H]3O[C@@]4(CC[C@H]3C)O[C@H]([C@H](C)C(=O)c3ccc[nH]3)[C@H](C)C[C@H]4C)nc2c1C(=O)O [A23187],–,–,toxic concentration by MTT assay (HaCaT cells): higher than 10 μM
"CCCCC/C=C\C/C=C\C/C=C\C/C=C\CCCC(=O)C(F)(F)F [AACOCF3, reference compound]",75 to 80,–,IC50 [1]: 5.8 ± 1.9 µM
CC/C=C\C/C=C\C/C=C\C/C=C\C/C=C\C/C=C\CCC(=O)C(F)(F)F [DHACOCF3],30,21.3 ± 1.5,–
CC/C=C\C/C=C\C/C=C\C/C=C\C/C=C\CCCC(=O)C(F)(F)F [EPACOCF3],75 to 80,2.9 ± 1.9,IC50 ([2]; HaCaT): 0.18 µM
CC/C=C\C/C=C\C/C=C\C/C=C\C/C=C\CCSCC(=O)C(F)(F)F [EPASCOCF3],75 to 80,3.5,–
"CS(=O)(=O)Nc1ccc([N+](=O)[O-])cc1OC1CCCCC1 [NS-398, reference compound]",–,–,"IC50 ([2]; LPS-stimulated HaCaT cells, inhibitor 0.2-25 μM for 30 min, FIG. 4): 0.24 µM"

# — US9375409B2, “Use of polyunsaturated ketones for the treatment of psoriasis” (Avexxin AS, priority 2002, dated 2016)
